Data as given in ChEMBL document CHEMBL1201862, “PubChem BioAssay data set” (2004).
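How tested: cells in 96-well plates exposed to compound for 48 hours at five concentrations. At the GI50, growth is halved.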 Active and inactive are the calls of the source. Rule as the data show it: active = GI50 up to about 1.1 µM and inactive = higher.

Key:
Assay in all cases: NCI-60 cell line screen, 48 h
[1] = tested on: HL-60
[2] = tested on: DMS-273
[3] = tested on: SF-539
[4] = tested on: TK-10
[5] = tested on: RPMI-8226
[6] = tested on: SK-MEL-5
[7] = tested on: M14
[8] = tested on: SR
[9] = tested on: U-251
[10] = tested on: SF-295
[11] = tested on: K562
[12] = tested on: CAKI-1
[13] = tested on: HCT-116
[14] = tested on: UO-31
[15] = tested on: UACC-62
[16] = tested on: RXF 631
[17] = tested on: SK-OV-3
[18] = tested on: M19-MEL
[19] = tested on: XF498
[20] = tested on: OVCAR-5
[21] = tested on: LOX IMVI
[22] = tested on: EKVX
[23] = tested on: A498
[24] = tested on: OVCAR-4
[25] = tested on: SW-620
[26] = tested on: SF-268
[27] = tested on: 786-0
[28] = tested on: DMS-114
[29] = tested on: SNB-19
[30] = tested on: UACC-257
[31] = tested on: SN12C
[32] = tested on: KM-20L2
[33] = tested on: OVCAR-3
[34] = tested on: NCI-H23
[35] = tested on: OVCAR-8
[36] = tested on: NCI-H460
[37] = tested on: MOLT-4
[38] = tested on: COLO 205
[39] = tested on: A549
[40] = tested on: CCRF-CEM
[41] = tested on: SK-MEL-28
[42] = tested on: NCI-H522
[43] = tested on: LXFL 529
[44] = tested on: SNB-78
[45] = tested on: HCT-15
[46] = tested on: HOP-92
[47] = tested on: HOP-62
[48] = tested on: HCC 2998
[49] = tested on: SNB-75
[50] = tested on: IGROV-1
[51] = tested on: KM12
[52] = tested on: ACHN
[53] = tested on: DLD-1
[54] = tested on: RXF 393
[55] = tested on: HOP-18
[56] = tested on: SK-MEL-2
[57] = tested on: HT-29
[58] = tested on: Malme-3M
[59] = tested on: NCI-H226

## COc1cc(-c2nnc3n2NC=C(C(=O)O)S3)cc(OC)c1OC
[1]
  GI50: > 61.4 µM (inactive)
[2]
  GI50: > 60.3 µM (inactive)
[3]
  GI50: > 42.8 µM (inactive)
[4]
  GI50: > 100 µM (inactive)
[5]
  GI50: > 49.4 µM (inactive)
[6]
  GI50: > 100 µM (inactive)
[7]
  GI50: > 81.3 µM (inactive)
[8]
  GI50: 41.6 µM (inactive)
[9]
  GI50: > 68.2 µM (inactive)
[10]
  GI50: > 100 µM (inactive)
[11]
  GI50: > 43.1 µM (inactive)
[12]
  GI50: > 100 µM (inactive)
[13]
  GI50: > 55.1 µM (inactive)
[14]
  GI50: > 100 µM (inactive)
[15]
  GI50: > 93.5 µM (inactive)
[16]
  GI50: > 100 µM (inactive)
[17]
  GI50: > 100 µM (inactive)
[18]
  GI50: > 69.3 µM (inactive)
[19]
  GI50: > 100 µM (inactive)
[20]
  GI50: > 100 µM (inactive)
[21]
  GI50: > 100 µM (inactive)
[22]
  GI50: > 100 µM (inactive)
[23]
  GI50: > 100 µM (inactive)
[24]
  GI50: > 62.2 µM (inactive)
[25]
  GI50: > 39.5 µM (inactive)
[26]
  GI50: > 76.9 µM (inactive)
[27]
  GI50: > 58.7 µM (inactive)
[28]
  GI50: > 56.5 µM (inactive)
[29]
  GI50: > 100 µM (inactive)
[30]
  GI50: > 100 µM (inactive)
[31]
  GI50: > 93.1 µM (inactive)
[32]
  GI50: > 59.2 µM (inactive)
[33]
  GI50: > 100 µM (inactive)
[34]
  GI50: > 100 µM (inactive)
[35]
  GI50: > 100 µM (inactive)
[36]
  GI50: > 71.4 µM (inactive)
[37]
  GI50: > 100 µM (inactive)
[38]
  GI50: > 57.5 µM (inactive)
[39]
  GI50: > 100 µM (inactive)
[40]
  GI50: 29.7 µM (inactive)
[41]
  GI50: > 100 µM (inactive)
[42]
  GI50: > 100 µM (inactive)
[43]
  GI50: > 71.6 µM (inactive)
[44]
  GI50: > 100 µM (inactive)
[45]
  GI50: > 54.5 µM
[46]
  GI50: > 100 µM (inactive)
[47]
  GI50: > 100 µM (inactive)
[48]
  GI50: > 100 µM (inactive)
[49]
  GI50: > 100 µM (inactive)
[50]
  GI50: > 100 µM (inactive)
[51]
  GI50: > 95.1 µM (inactive)
[52]
  GI50: > 100 µM (inactive)
[53]
  GI50: > 57.8 µM (inactive)
[54]
  GI50: > 100 µM (inactive)
[55]
  GI50: > 70.1 µM (inactive)
[56]
  GI50: > 100 µM (inactive)
[57]
  GI50: > 100 µM (inactive)
[58]
  GI50: > 100 µM (inactive)
[59]
  GI50: > 100 µM (inactive)
